Data: PMC6321124, “Hydrophilic Linear Peptide with Histidine and Lysine Residues as a Key Factor Affecting Antifungal Activity” (International Journal of Molecular Sciences, 2018)
In brackets after ≈: the same amount, converted by molar mass. Residues, ends and D or L forms follow the SMILES beside them.

Experiments:
[1] = test system: C. albicans (CCARM 14020, fluconazole-resistant strain); details: CCARM 14020, 48 h, pH 6
[2] = test system: C. parapsilosis (CCARM 14016); details: CCARM 14016, 48 h, pH 6
[3] = test system: F. graminearum (KCTC 16656); details: KCTC 16656, 48 h, pH 6
[4] = test system: F. oxysporum (KCTC 16909); details: KCTC 16909, 48 h, pH 6
[5] = test system: C. gloeosporioides (KCTC 6169); details: KCTC 6169, 48 h, pH 6
[6] = test system: Trichoderma viride (KCTC 16992); details: KCTC 16992, 48 h, pH 6
[7] = test system: Aspergillus flavus (KCTC 6905); details: KCTC 6905, 48 h, pH 6
[8] = test system: C. albicans (CCARM 14004, fluconazole-resistant strain); details: CCARM 14004, 48 h, pH 6
F. solani (KCTC 6326) = details: KCTC 6326, 48 h, pH 6
C. krusei (CCARM 14017) = details: CCARM 14017, 48 h, pH 6
C. albicans (KCTC 7270) = details: KCTC 7270, 48 h, pH 6
[9] = test system: Trichoderma virens (KCTC 16924); details: KCTC 16924, 48 h, pH 6
[10] = test system: C. albicans (CCARM 14001, fluconazole-resistant strain); details: CCARM 14001, 48 h, pH 6
[11] = test system: F. moniliforme (KCTC 6149); details: KCTC 6149, 48 h, pH 6
[12] = test system: C. albicans (CCARM 14007, amphotericin B-resistant strain); details: CCARM 14007, 48 h, pH 6
[13] = test system: Tricophyton rubrum (KCTC 6345); details: KCTC 6345, 48 h, pH 6
C. albicans cells [14] = assay: Intracellular ROS (DCFH-DA, flow cytometry); assay type: cell-based; details: peptides at MICs or 10 mM H2O2 for 6 h, DCFH-DA 20 min
Experimental: DCF fluorescence was measured using 5000 events/sample following excitation with a 488-nm wavelength laser and reading through a 525/40 biopass filter using a CytoFLEX flow cytometer.

[15] = Calcein leakage, artificial mammalian model membrane; details: PC/Ch/SM (1:1:1) LUVs, 10 μM lipids
Experimental: The dried lipids were prehydrated with dye buffer solution (80 mM calcein, 10 mM MES, 50 mM NaCl, pH 6.2), vortexed for 1 min, and incubated for 30 min at 50 °C. The suspension was freeze-thawed in liquid nitrogen for nine cycles to generate large unilamellar vesicles (LUVs) and extruded 30 times through polycarbonate filters (two stacked 0.2-μm pore-size filters) using an Avanti Mini-Extruder (Avanti Polar Lipids Inc., Alabaster, AL, USA). Calcein-entrapped vesicles were separated from free calcein by gel filtration chromatography on a Sephadex G-50 column. Entrapped LUVs in suspensions containing 10 μM lipids were incubated with various concentrations of the peptide. The fluorescence of the released calcein was assessed with a microtiter SpectraMax M5 reader at an excitation wavelength of 480 nm and an emission wavelength of 520 nm. Complete (100%) release was achieved via the addition of Triton X-100 to a final concentration of 0.1% (v/v). The apparent percentage of calcein release was calculated in accordance with the following equation: Release (%) = 100 × (F − F0)/(Ft − F0) (2) where F and Ft represent the fluorescence intensity after the addition of the peptides and Triton X-100, respectively, and F0 represents the fluorescence of the intact vesicles.

HaCaT cells = assay: Cytotoxicity (MTT assay); assay type: cell-based; details: at 3.13 µM, 24 h
C. albicans cells [16] = assay: SYTOX Green uptake (flow cytometry); assay type: cell-based; details: peptides at MICs for 30 min, 0.5 μM SYTOX Green pre-incubated 15 min
Experimental: C. albicans cells were pre-incubated with 0.5 μM SYTOX Green for 15 min in the dark, incubated with the indicated peptides at MICs for 30 min, and then analyzed using a CytoFLEX flow cytometer (Beckman Coulter Inc., Brea, CA, USA).

C. albicans = details: peptides at MICs for 6 h, measured at 550 nm

Compound | MIC [1] [µM] | MIC [2] [µM] | MIC [3] [µM] | MIC [4] [µM] | MIC [5] [µM] | MIC [6] [µM] | MIC [7] [µM] | MIC [8] [µM] | MIC (F. solani (KCTC 6326)) [µM] | MIC (C. krusei (CCARM 14017)) [µM] | MIC (C. albicans (KCTC 7270)) [µM] | MIC [9] [µM] | MIC [10] [µM] | MIC [11] [µM] | MIC [12] [µM] | MIC [13] [µM] | also measured
NCCCC[C@H](NC(=O)[C@H](CCCCN)NC(=O)[C@@H](N)Cc1c[nH]cn1)C(N)=O [(HKK)1] (H-His-Lys-Lys-NH2) | 1024 (≈ 420 µg/mL) | 1024 (≈ 420 µg/mL) | 512 (≈ 210 µg/mL) | 256 (≈ 105 µg/mL) | 1024 (≈ 420 µg/mL) | 256 (≈ 105 µg/mL) | 256 (≈ 105 µg/mL) | 1024 (≈ 420 µg/mL) | 256 (≈ 105 µg/mL) | 512 (≈ 210 µg/mL) | 1024 (≈ 420 µg/mL) | 512 (≈ 210 µg/mL) | 1024 (≈ 420 µg/mL) | 256 (≈ 105 µg/mL) | 1024 (≈ 420 µg/mL) | 512 (≈ 210 µg/mL) | 
NCCCC[C@H](NC(=O)[C@H](CCCCN)NC(=O)[C@H](Cc1c[nH]cn1)NC(=O)[C@H](CCCCN)NC(=O)[C@H](CCCCN)NC(=O)[C@@H](N)Cc1c[nH]cn1)C(N)=O [(HKK)2] (H-HKKHKK-NH2) | 64 (≈ 51.5 µg/mL) | 64 (≈ 51.5 µg/mL) | 64 (≈ 51.5 µg/mL) | 64 (≈ 51.5 µg/mL) | 16 (≈ 12.9 µg/mL) | 64 (≈ 51.5 µg/mL) | 64 (≈ 51.5 µg/mL) | 64 (≈ 51.5 µg/mL) | 32 (≈ 25.7 µg/mL) | 64 (≈ 51.5 µg/mL) | 64 (≈ 51.5 µg/mL) | 32 (≈ 25.7 µg/mL) | 64 (≈ 51.5 µg/mL) | 32 (≈ 25.7 µg/mL) | 64 (≈ 51.5 µg/mL) | 64 (≈ 51.5 µg/mL) | 
NCCCC[C@H](NC(=O)[C@H](CCCCN)NC(=O)[C@H](Cc1c[nH]cn1)NC(=O)[C@H](CCCCN)NC(=O)[C@H](CCCCN)NC(=O)[C@H](Cc1c[nH]cn1)NC(=O)[C@H](CCCCN)NC(=O)[C@H](CCCCN)NC(=O)[C@@H](N)Cc1c[nH]cn1)C(N)=O [(HKK)3] (H-HKKHKKHKK-NH2) | 64 (≈ 76.6 µg/mL) | 32 (≈ 38.3 µg/mL) | 32 (≈ 38.3 µg/mL) | 32 (≈ 38.3 µg/mL) | 8 (≈ 9.58 µg/mL) | 16 (≈ 19.2 µg/mL) | 16 (≈ 19.2 µg/mL) | 64 (≈ 76.6 µg/mL) | 16 (≈ 19.2 µg/mL) | 16 (≈ 19.2 µg/mL) | 64 (≈ 76.6 µg/mL) | 16 (≈ 19.2 µg/mL) | 64 (≈ 76.6 µg/mL) | 16 (≈ 19.2 µg/mL) | 64 (≈ 76.6 µg/mL) | 32 (≈ 38.3 µg/mL) | 
NCCCC[C@H](NC(=O)[C@H](CCCCN)NC(=O)[C@H](Cc1c[nH]cn1)NC(=O)[C@H](CCCCN)NC(=O)[C@H](CCCCN)NC(=O)[C@H](Cc1c[nH]cn1)NC(=O)[C@H](CCCCN)NC(=O)[C@H](CCCCN)NC(=O)[C@H](Cc1c[nH]cn1)NC(=O)[C@H](CCCCN)NC(=O)[C@H](CCCCN)NC(=O)[C@@H](N)Cc1c[nH]cn1)C(N)=O [(HKK)4] (H-HKKHKKHKKHKK-NH2) | 32 (≈ 50.9 µg/mL) | 32 (≈ 50.9 µg/mL) | 16 (≈ 25.5 µg/mL) | 4 (≈ 6.36 µg/mL) | 2 (≈ 3.18 µg/mL) | 4 (≈ 6.36 µg/mL) | 8 (≈ 12.7 µg/mL) | 32 (≈ 50.9 µg/mL) | 4 (≈ 6.36 µg/mL) | 4 (≈ 6.36 µg/mL) | 32 (≈ 50.9 µg/mL) | 16 (≈ 25.5 µg/mL) | 32 (≈ 50.9 µg/mL) | 4 (≈ 6.36 µg/mL) | 32 (≈ 50.9 µg/mL) | 16 (≈ 25.5 µg/mL) | 
NCCCC[C@H](NC(=O)[C@H](CCCCN)NC(=O)[C@H](Cc1c[nH]cn1)NC(=O)[C@H](CCCCN)NC(=O)[C@H](CCCCN)NC(=O)[C@H](Cc1c[nH]cn1)NC(=O)[C@H](CCCCN)NC(=O)[C@H](CCCCN)NC(=O)[C@H](Cc1c[nH]cn1)NC(=O)[C@H](CCCCN)NC(=O)[C@H](CCCCN)NC(=O)[C@H](Cc1c[nH]cn1)NC(=O)[C@H](CCCCN)NC(=O)[C@H](CCCCN)NC(=O)[C@H](Cc1c[nH]cn1)NC(=O)[C@H](CCCCN)NC(=O)[C@H](CCCCN)NC(=O)[C@@H](N)Cc1c[nH]cn1)C(N)=O [(HKK)6] (H-HKKHKKHKKHKKHKKHKK-NH2) | 16 (≈ 38 µg/mL) | 16 (≈ 38 µg/mL) | 8 (≈ 19 µg/mL) | 2 (≈ 4.76 µg/mL) | 1 (≈ 2.38 µg/mL) | 2 (≈ 4.76 µg/mL) | 4 (≈ 9.51 µg/mL) | 16 (≈ 38 µg/mL) | 2 (≈ 4.76 µg/mL) | 4 (≈ 9.51 µg/mL) | 16 (≈ 38 µg/mL) | 8 (≈ 19 µg/mL) | 16 (≈ 38 µg/mL) | 2 (≈ 4.76 µg/mL) | 16 (≈ 38 µg/mL) | 8 (≈ 19 µg/mL) | 
NCCCC[C@H](NC(=O)[C@H](CCCCN)NC(=O)[C@H](Cc1c[nH]cn1)NC(=O)[C@H](CCCCN)NC(=O)[C@H](CCCCN)NC(=O)[C@H](Cc1c[nH]cn1)NC(=O)[C@H](CCCCN)NC(=O)[C@H](CCCCN)NC(=O)[C@H](Cc1c[nH]cn1)NC(=O)[C@H](CCCCN)NC(=O)[C@H](CCCCN)NC(=O)[C@H](Cc1c[nH]cn1)NC(=O)[C@H](CCCCN)NC(=O)[C@H](CCCCN)NC(=O)[C@H](Cc1c[nH]cn1)NC(=O)[C@H](CCCCN)NC(=O)[C@H](CCCCN)NC(=O)[C@H](Cc1c[nH]cn1)NC(=O)[C@H](CCCCN)NC(=O)[C@H](CCCCN)NC(=O)[C@H](Cc1c[nH]cn1)NC(=O)[C@H](CCCCN)NC(=O)[C@H](CCCCN)NC(=O)[C@@H](N)Cc1c[nH]cn1)C(N)=O [(HKK)8] (H-HKKHKKHKKHKKHKKHKKHKKHKK-NH2) | 8 (≈ 25.3 µg/mL) | 8 (≈ 25.3 µg/mL) | 4 (≈ 12.7 µg/mL) | 2 (≈ 6.33 µg/mL) | 1 (≈ 3.16 µg/mL) | 1 (≈ 3.16 µg/mL) | 2 (≈ 6.33 µg/mL) | 8 (≈ 25.3 µg/mL) | 1 (≈ 3.16 µg/mL) | 4 (≈ 12.7 µg/mL) | 8 (≈ 25.3 µg/mL) | 4 (≈ 12.7 µg/mL) | 8 (≈ 25.3 µg/mL) | 2 (≈ 6.33 µg/mL) | 8 (≈ 25.3 µg/mL) | 2 (≈ 6.33 µg/mL) | 
OO [H2O2] |  |  |  |  |  |  |  |  |  |  |  |  |  |  |  |  | intracellular ROS generation (C. albicans cells [14]): high levels of ROS generation
CC[C@H](C)[C@H](NC(=O)CN)C(=O)NCC(=O)N[C@@H](C)C(=O)N[C@H](C(=O)N[C@@H](CC(C)C)C(=O)N[C@@H](CCCCN)C(=O)N[C@H](C(=O)N[C@@H](CC(C)C)C(=O)N[C@H](C(=O)N[C@H](C(=O)NCC(=O)N[C@@H](CC(C)C)C(=O)N1CCC[C@H]1C(=O)N[C@@H](C)C(=O)N[C@@H](CC(C)C)C(=O)N[C@H](C(=O)N[C@@H](CO)C(=O)N[C@@H](Cc1c[nH]c2ccccc12)C(=O)N[C@H](C(=O)N[C@@H](CCCCN)C(=O)N[C@@H](CCCNC(=N)N)C(=O)N[C@@H](CCCCN)C(=O)N[C@@H](CCCNC(=N)N)C(=O)N[C@@H](CCC(N)=O)C(=O)N[C@@H](CCC(N)=O)C(N)=O)[C@@H](C)CC)[C@@H](C)CC)[C@@H](C)O)[C@@H](C)O)C(C)C)C(C)C [Melittin, melittin, reference compound] | 8 (≈ 22.8 µg/mL) | 8 (≈ 22.8 µg/mL) | 8 (≈ 22.8 µg/mL) | 8 (≈ 22.8 µg/mL) | 16 (≈ 45.5 µg/mL) | 4 (≈ 11.4 µg/mL) | 8 (≈ 22.8 µg/mL) | 8 (≈ 22.8 µg/mL) | 8 (≈ 22.8 µg/mL) | 8 (≈ 22.8 µg/mL) | 8 (≈ 22.8 µg/mL) | 32 (≈ 91.1 µg/mL) | 8 (≈ 22.8 µg/mL) | 8 (≈ 22.8 µg/mL) | 8 (≈ 22.8 µg/mL) | 8 (≈ 22.8 µg/mL) | calcein leakage from mammalian artificial liposomes (in words) [15]: concentration-dependent calcein leakage; cell death (HaCaT cells): 100%
histatin 5 |  |  |  |  |  |  |  |  |  |  |  |  |  |  |  |  | SYTOX Green uptake (membrane permeabilization) (C. albicans cells [16]): did not induce membrane damage; relative cytochrome c levels in the cytosol (C. albicans): only minor alterations
